Results reported in patent US20110124608A1, “USE OF 25-HYDROXY VITAMIN D3 TO INCREASE MUSCLE MASS IN MAMMALS” (priority 2007, published 2011).

Columns and labels:
Format in all cases: in vivo, pig
pigs [1] = experiment: Farm records: pigs weaned from 25-OH D3-fed sows but not fed 25-OH D3; settings: pigs weaned from 25-OH D3-fed sows but not fed 25-OH D3 (prenatal exposure only)
pigs [2] = experiment: Swine growth performance, Study A: pigs fed 25-OH D3 and farrowed to sows fed 25-OH D3
Text: (§1) Study A. Two treatment groups were used in all studies. The control group contained first-to-fifth parity pigs (sows and progenies) fed rations without 25-OH D3 supplementation. The experimental group was made up of first-to-fifth parity pigs fed rations supplemented with 50 mcg 25-OH D3/kg diet) and farrowed to sows fed rations supplemented with 25-OH D3 since 6 months old. Study A only covered the pre-starter to finisher stage (41-150 days old) for the first to third parities pigs, while it covered the booster to finisher stage (7-150 days old) for the fourth and fifth parity pigs. Study B. Two treatment groups were also used in this study. Pigs were randomly selected from mixed-parity sows fed rations containing no supplemental 25-OH on the same farm. The control group was fed rations without 25-OH D3, whereas the experimental group was fed rations supplemented with 25-OH D3 (50 mcg 25-OH D3/kg diet). Study B covered the pre-starter to finisher stage (41-150 days old). Number of pigs and replicates: There were 8-11 replicates per treatment and 4 pigs per replicate. Randomization and Allotment of pigs: Pigs were grouped according to size and sex and randomly allocated to each treatment. The number of male-replicates for the two treatments were equalized. Rations: The rations involved in all studies were gestating and lactation rations for the sows. Booster, pre-starter, starter, grower and finisher rations were given to the progenies. Feeding: The experimental pigs were fed ad libitum with dry feeds. Booster pigs (sucklings) were fed starting when they were 7 days old. Feeds were placed in a linear trough designed for piglets. For a few days, only a small amount of feed was given to the pigs, but when they were eating, the required amount was always in the feeder. The amounts of feeds were properly weighed and recorded. Pre-starter pigs were fed for 30 days using linear feeders while they were confined in slatted and elevated nursery pens. The grower-finisher pigs were fed using concrete linear feeders for 80 days while they were confined in pens with cement flooring. The following rations were fed to pigs corresponding to their age.
(§2) Other management Practices: All experimental animals were subject to the standard operating procedure in the farm where these studies were conducted. Data Collection The following data were collected: 1. Weights of piglets at 7 days old 2. Weight of piglets at 28 days old 3. Weight of pigs at 41, 70, 100, 130, and 150 days old 4. Feed consumption during the following periods:
Across parities, pigs weaned from 25-OH D3—fed sows were fed 50 μg 25-OH D3/kg diet and those weaned from control sows were fed the control diet (containing no 25-OH D3). Consistently across the three parities, pigs fed 25-OH D3 gained weight faster (a delta average of 3.9 kg) an converted feed to gain (a delta average of 7 points) more efficient than those fed the control diet.

pigs [3] = experiment: Swine growth performance, Study B / Example 2: pigs fed 25-OH D3, farrowed to sows fed without 25-OH D3
Text: as §1, §2
In this study, the pigs that were used were weaned from sows that were not fed 25-OH D3.

[4] = across parities, prestarting-to-finishing pigs from 25-OH D3-fed sows, 50 μg 25-OH D3/kg diet
[5] = fifth parity pigs, 41-150-day old, sows fed 25-OH D3, 50 mcg 25-OH D3/kg diet
[6] = fifth parity pigs, 41-150-day old, sows fed 25-OH D3, difference to control
[7] = first parity pigs, 41-to-150-day-old, sows fed 25-OH D3, 50 mcg 25-OH D3/kg diet
[8] = first parity pigs, 41-to-150-day-old, sows fed 25-OH D3, difference to control
[9] = fourth parity pigs, 41-150-old, sows fed 25-OH D3, 50 mcg 25-OH D3/kg diet
[10] = fourth parity pigs, 41-150-old, sows fed 25-OH D3, difference to control
[11] = second parity pigs, 41-to-150-day-old, sows fed 25-OH D3, 50 mcg 25-OH D3/kg diet
[12] = second parity pigs, 41-to-150-day-old, sows fed 25-OH D3, difference to control
[13] = third parity pigs, 41-150-day-old, sows fed 25-OH D3, 50 mcg 25-OH D3/kg diet
[14] = third parity pigs, 41-150-day-old, sows fed 25-OH D3, difference to control
[15] = mixed-parity pigs, 41-to-150-day old, sows fed without 25-OH D3, 50 mcg 25-OH D3/kg diet
[16] = mixed-parity pigs, 41-to-150-day old, sows fed without 25-OH D3, difference to control

## C=C1CC[C@H](O)C/C1=C/C=C1\CCC[C@]2(C)[C@@H]([C@H](C)CCCC(C)(C)O)CC[C@@H]12 [25-OH D3, 25-hydroxy vitamin D3]
Pigs [1]
  weight gain compared with pigs fed 25-OH D3 (Table 1): gain weight slower
Pigs [1]; farm records, n=23 pigs
  body weight average: 80.90 kg
Pigs [2]; [4]
  feed to gain conversion, delta average v. control diet: 7 points
  weight gain, delta average v. control diet: 3.9 kg
Pigs [2]; [5]
  Daily wt gain: 0.76 kg
  Feed: Gain: 2.22
  Final body wt: 91.94 kg
  Initial Body wt: 8.66 kg
  Total feed intake: 184.63 kg
  Total wt gain: 83.27 kg
Pigs [2]; [6]
  Daily wt gain, 25-OH D3 v. control (δ): 0.03 kg
  Feed: Gain, 25-OH D3 v. control (δ): 0.00
  Final body wt, 25-OH D3 v. control (δ): 2.51 kg
  Initial Body wt, 25-OH D3 v. control (δ): -0.07 kg
  Total feed intake, 25-OH D3 v. control (δ): 5.04 kg
  Total wt gain, 25-OH D3 v. control (δ): 2.57 kg
Pigs [2]; [7]
  Daily wt gain: 0.72 kg
  Feed: Gain: 2.32
  Final body wt: 87.78 kg
  Initial Body wt: 8.24 kg
  Total feed intake: 184.60 kg
  Total wt gain: 79.55 kg
Pigs [2]; [8]
  Daily wt gain, 25-OH D3 v. control (δ): 0.04 kg
  Feed: Gain, 25-OH D3 v. control (δ): −0.15
  Final body wt, 25-OH D3 v. control (δ): 5.72 kg
  Initial Body wt, 25-OH D3 v. control (δ): 0.64 kg
  Total feed intake, 25-OH D3 v. control (δ): 0.86 kg
  Total wt gain, 25-OH D3 v. control (δ): 5.08 kg
Pigs [2]; [9]
  Daily wt gain: 0.74 kg
  Feed: Gain: 2.07
  Final body wt: 89.57 kg
  Initial Body wt: 8.43 kg
  Total feed intake: 166.93 kg
  Total weight gain: 81.15 kg
Pigs [2]; [10]
  Daily wt gain, 25-OH D3 v. control (δ): 0.01 kg
  Feed: Gain, 25-OH D3 v. control (δ): −0.05
  Final body wt, 25-OH D3 v. control (δ): 1.21 kg
  Initial Body wt, 25-OH D3 v. control (δ): 0.15 kg
  Total feed intake, 25-OH D3 v. control (δ): -1.86 kg
  Total weight gain, 25-OH D3 v. control (δ): 1.06 kg
Pigs [2]; [11]
  Daily wt gain: 0.78 kg
  Feed: Gain: 2.28
  Final body wt: 95.78 kg
  Initial Body wt: 10.56 kg
  Total feed intake: 193.74 kg
  Total wt gain: 85.22 kg
Pigs [2]; [12]
  Daily wt gain, 25-OH D3 v. control (δ): 0.06 kg
  Feed: Gain, 25-OH D3 v. control (δ): −0.04
  Final body wt, 25-OH D3 v. control (δ): 7.34 kg
  Initial Body wt, 25-OH D3 v. control (δ): 1.67 kg
  Total feed intake, 25-OH D3 v. control (δ): 9.25 kg
  Total wt gain, 25-OH D3 v. control (δ): 5.59 kg
Pigs [2]; [13]
  Daily weight gain: 0.76 kg
  Feed: Gain: 2.16
  Final body wt: 92.39 kg
  Initial Body wt: 8.88 kg
  Total feed intake: 179.35 kg
  Total wt gain: 83.51 kg
Pigs [2]; [14]
  Daily weight gain, 25-OH D3 v. control (δ): 0.05 kg
  Feed: Gain, 25-OH D3 v. control (δ): −0.13
  Final body wt, 25-OH D3 v. control (δ): 5.88 kg
  Initial Body wt, 25-OH D3 v. control (δ): 0.75 kg
  Total feed intake, 25-OH D3 v. control (δ): 0.52 kg
  Total wt gain, 25-OH D3 v. control (δ): 5.12 kg
Pigs [3]; [15]
  Daily wt gain: 0.74 kg
  Feed: Gain: 2.34
  Final body wt: 89.59 kg
  Initial Body wt: 8.44 kg
  Total feed intake: 190.05 kg
  Total wt gain: 81.15 kg
Pigs [3]; [16]
  Daily wt gain, 25-OH D3 v. control (δ): 0.01 kg
  Feed: Gain, 25-OH D3 v. control (δ): −0.06
  Final body wt, 25-OH D3 v. control (δ): 0.98 kg
  Initial Body wt, 25-OH D3 v. control (δ): 0.11 kg
  Total feed intake, 25-OH D3 v. control (δ): -0.89 kg
  Total wt gain, 25-OH D3 v. control (δ): 0.88 kg
Pigs [3]; pigs weaned from sows not fed 25-OH D3
  conversion of feed to weight gain compared with pigs fed without 25-OH D3: more efficiently
